Experiment [1] has as its target T1, Acetylcholinesterase from Electrophorus electricus (electric eel) (AChE) (Electrophorus electricus, UniProt O42275). The experiment in a line: ITC: titration of AChE with ligand, complexation (association) constant. The class given is binding. To be noted: for Ka × 10^3 (binding/association constant, ITC): 36.6 °C, one binding site model; for Ka (association constant, ITC): restated in L/mol.

Experiment [2] concerns the target T1, Acetylcholinesterase from Electrophorus electricus (electric eel) (AChE). In kind it is biochemical. To be noted: 36.6 °C; for % Inhibition (inhibitory activity, ITC): AChE 1 μmol/L in cell, syringe hydroxybenzoic acid 0.5 mmol/L and ACh 1 mmol/L, mean ± SD of three; for IC50 (ITC): ligand amount per AChE monomer that inhibits ACh hydrolysis by 50%.
Experiment [3] concerns AChE. To be noted: colorimetric method; cited from earlier work.
Experiment [4] relates to AChE. To be noted: inhibitory activity for AChE; cited from earlier work.
The subject of experiment [5] is AChE. More on the design: method as in PMID 18274286. To be noted: AChE inhibition; cited from earlier work.
Experiment [6] has as its system AChE. Further details: method as in PMID 23229229. Particulars: AChE inhibition; cited from earlier work.
The subject of experiment [7] is AChE. To be noted: anti-AChE activity; cited from earlier work.
In experiment [8] the test system is AChE. To be noted: mice administered with streptozotocin; dose-dependent; cited from earlier work.
The test system of experiment [9] is AChE. Particulars: AChE inhibition; literature result, no reference given; cited from earlier work.

This is an account of results in paper PMC9227119, “Hydroxybenzoic Acids as Acetylcholinesterase Inhibitors: Calorimetric and Docking Simulation Studies” (Nutrients, 2022).

By Kd is commonly meant the equilibrium constant for the complex coming apart. A high value points to a looser complex. The IC50 is the concentration that gives 50% inhibition.

In brackets after ≈: the same amount, converted by molar mass. Several values for one entry are separate records, joined by “and”; a condition that tells them apart may be missing. Identical values can stand only once. Like-named read-outs stand apart in the source and are kept apart here.

T1 sequence (O42275 24-633): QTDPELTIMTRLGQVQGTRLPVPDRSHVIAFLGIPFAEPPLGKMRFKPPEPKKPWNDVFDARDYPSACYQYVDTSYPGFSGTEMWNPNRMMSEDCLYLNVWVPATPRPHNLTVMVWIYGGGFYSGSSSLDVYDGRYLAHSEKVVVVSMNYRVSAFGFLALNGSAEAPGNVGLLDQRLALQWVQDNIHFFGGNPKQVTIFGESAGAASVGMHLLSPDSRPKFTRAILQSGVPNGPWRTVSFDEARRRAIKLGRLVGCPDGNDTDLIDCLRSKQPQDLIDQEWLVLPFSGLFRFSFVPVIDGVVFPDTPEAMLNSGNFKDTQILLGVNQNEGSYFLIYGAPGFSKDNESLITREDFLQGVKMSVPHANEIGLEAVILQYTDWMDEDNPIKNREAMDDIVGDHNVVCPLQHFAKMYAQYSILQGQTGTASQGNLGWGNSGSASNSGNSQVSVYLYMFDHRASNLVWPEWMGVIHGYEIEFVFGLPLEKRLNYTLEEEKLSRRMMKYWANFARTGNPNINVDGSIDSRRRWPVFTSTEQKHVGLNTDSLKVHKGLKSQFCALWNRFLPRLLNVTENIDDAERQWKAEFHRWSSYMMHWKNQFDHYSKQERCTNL

For the compound `O=C(O)c1cccc(O)c1` [3-hydroxybenzoic acid], in experiment [1], the Kd was 15.6 µM and the “Ka × 10^3 (binding/association constant, ITC)” value is given as 64.10 × 10^3 L/mol. In experiment [2], the “% Inhibition (inhibitory activity, ITC)” value is reported as 74.80 ± 8.63%; the “IC50 (ITC)” value was 6.68 μmol/μmol AChE and 6.68 ± 0.77 μmol/μmol AChE. For the same compound, the “Ellman’s Assay (inhibitory activity as eserine equivalent)” value in experiment [3] is given as 2.6 ± 0.1 nmol/L of Eserine.

Take `O=C(O)c1ccc(O)cc1` [4-hydroxybenzoic acid]: the “Ellman’s Assay (inhibitory activity as eserine equivalent)” value in experiment [3] is on record as 3.7 ± 0.3 nmol/L of Eserine.

Regarding `O=C(O)Cc1ccc(O)cc1` [4-hydroxyphenylacetic acid], in experiment [1], the Kd is 15.1 µM and the “Ka × 10^3 (binding/association constant, ITC)” value was 66.23 × 10^3 L/mol. Besides, in [2], the “% Inhibition (inhibitory activity, ITC)” value is listed as 80.20 ± 8.04%; the “IC50 (ITC)” value is 6.24 μmol/μmol AChE and 6.24 ± 0.63 μmol/μmol AChE.

Regarding `O=C(O)C(=O)Cc1ccc(O)cc1` [4-hydroxyphenylpyruvic acid], in experiment [1], the Kd is 3.95 µM; the “Ka × 10^3 (binding/association constant, ITC)” value was 253 × 10^3 L/mol; the “Ka (association constant, ITC)” value stood at 253000 L/mol. Besides, in experiment [2], the “% Inhibition (inhibitory activity, ITC)” value is recorded as 84.93 ± 5.82%; the “IC50 (ITC)” value was 5.89 μmol/μmol AChE and 5.89 ± 0.40 μmol/μmol AChE. Besides, the “Ellman’s Assay (inhibitory activity as eserine equivalent)” value in [3] was 23.6 ± 1.5 nmol/L of Eserine.

As to `COc1ccc2c3c1O[C@H]1C[C@@H](O)C=C[C@@]31CCN(C)C2` [calantamine, galantamine], the IC50 in [4] was […].

Take `CCOC(=O)c1ccc(O)cc1` [ethyl 4-hydroxybenzoate]: in experiment [1], binding was characterised by a dissociation constant (Kd) of 48.7 µM and the “Ka × 10^3 (binding/association constant, ITC)” value is on record as 20.53 × 10^3 L/mol. In [2], the “% Inhibition (inhibitory activity, ITC)” value was found to be 15.93 ± 0.75% and the “IC50 (ITC)” value stood at 31.38 ± 1.48 μmol/μmol AChE. In experiment [2] (listed as ethylhydroxybenzoate), the “IC50 (ITC)” value came to 31.38 μmol/μmol AChE. The “Ellman’s Assay (inhibitory activity as eserine equivalent)” value in experiment [3] is given as 28.1 ± 0.1 nmol/L of Eserine.

With `CCOC(=O)c1ccc(O)c(OC)c1` [ethyl vanillate], in [1], the dissociation constant Kd was 25.8 µM and the “Ka × 10^3 (binding/association constant, ITC)” value is on record as 38.76 × 10^3 L/mol. Further, in [2], the “% Inhibition (inhibitory activity, ITC)” value is reported as 14.60 ± 2.33%; the “IC50 (ITC)” value was 34.19 μmol/μmol AChE and 34.19 ± 5.46 μmol/μmol AChE. The “Ellman’s Assay (inhibitory activity as eserine equivalent)” value in experiment [3] is given as 33.5 ± 2.5 nmol/L of Eserine.

For the compound `O=C(O)c1cc(O)c(O)c(O)c1` [gallic acid], in experiment [1], the affinity, expressed as Kd, was 19.4 µM and the “Ka × 10^3 (binding/association constant, ITC)” value was 51.55 × 10^3 L/mol. In addition, in experiment [2], the “% Inhibition (inhibitory activity, ITC)” value is listed as 53.70 ± 2.86%; the “IC50 (ITC)” value was 9.32 μmol/μmol AChE and 9.32 ± 0.50 μmol/μmol AChE. Further, the “Ellman’s Assay (inhibitory activity as eserine equivalent)” value in experiment [3] was 3.8 ± 0.1 nmol/L of Eserine. Also, the IC50 in experiment [5] was 5.89 µM.

`O=C(O)c1cc(O)ccc1O` [gentisic acid]: in experiment [1], binding was characterised by a dissociation constant (Kd) of 13 µM and the “Ka × 10^3 (binding/association constant, ITC)” value is recorded as 76.92 × 10^3 L/mol. Moreover, in experiment [2], the “% Inhibition (inhibitory activity, ITC)” value amounted to 62.38 ± 6.39%; the “IC50 (ITC)” value was 8.02 μmol/μmol AChE and 8.02 ± 0.82 μmol/μmol AChE. In addition, the “Ellman’s Assay (inhibitory activity as eserine equivalent)” value in experiment [3] was 68.6 ± 0.7 nmol/L of Eserine.

`O=C(O)Cc1cc(O)ccc1O` [homogentisic acid]: in [1], the affinity, expressed as Kd, was 8.55 µM and the “Ka × 10^3 (binding/association constant, ITC)” value is reported as 116.92 × 10^3 L/mol. In addition, in experiment [2], the “% Inhibition (inhibitory activity, ITC)” value is 68.78 ± 0.88%; the “IC50 (ITC)” value is 7.16 μmol/μmol AChE and 7.16 ± 0.09 μmol/μmol AChE. In addition, in [3], the “Ellman’s Assay (inhibitory activity as eserine equivalent)” value is 9.6 ± 2.4 nmol/L of Eserine.

With `COc1cc(CC(=O)O)ccc1O` [homovanillic acid], in experiment [1], the Kd was 7.35 µM and the “Ka × 10^3 (binding/association constant, ITC)” value was 136.05 × 10^3 L/mol. In [2], the “% Inhibition (inhibitory activity, ITC)” value came out at 77.50 ± 2.59%; the “IC50 (ITC)” value was 6.45 μmol/μmol AChE and 6.45 ± 0.22 μmol/μmol AChE. The “Ellman’s Assay (inhibitory activity as eserine equivalent)” value in experiment [3] is recorded as 21.8 ± 0.4 nmol/L of Eserine.

Turning to `COC(=O)c1cc(OC)c(O)c(OC)c1` [methyl syringate], in [1], the Kd is 6.48 µM; the “Ka × 10^3 (binding/association constant, ITC)” value is recorded as 154.32 × 10^3 L/mol; the “Ka (association constant, ITC)” value was determined as 154000 L/mol. In addition, in experiment [2], the “% Inhibition (inhibitory activity, ITC)” value came to 90.93 ± 7.13%; the “IC50 (ITC)” value is 5.50 μmol/μmol AChE and 5.50 ± 0.43 μmol/μmol AChE. In experiment [3], the “Ellman’s Assay (inhibitory activity as eserine equivalent)” value is reported as 9.1 ±1.6 nmol/L of Eserine.

`C[C@H](Cc1ccc(O)c(O)c1)[C@@H](C)Cc1ccc(O)c(O)c1` [nordihydroguaiaretic acid]: in experiment [1], the Kd is 17.3 µM and the “Ka × 10^3 (binding/association constant, ITC)” value is given as 57.80 × 10^3 L/mol. For the same compound, in [6], the IC50 was 46.2 µM. In experiment [2], the “% Inhibition (inhibitory activity, ITC)” value amounted to 77.20 ± 4.84%; the “IC50 (ITC)” value is 6.47 μmol/μmol AChE and 6.47 ± 0.41 μmol/μmol AChE. Moreover, the “Ellman’s Assay (inhibitory activity as eserine equivalent)” value in experiment [3] is 37.3 ± 1.2 nmol/L of Eserine.

Turning to `O=C(O)c1ccc(O)c(O)c1` [protocatechuic acid], in experiment [1], the Kd was 17.4 µM and the “Ka × 10^3 (binding/association constant, ITC)” value was 57.63 × 10^3 L/mol. Moreover, in experiment [2], the “% Inhibition (inhibitory activity, ITC)” value is given as 77.15 ± 5.16% and the “IC50 (ITC)” value was 6.50 ± 0.43 μmol/μmol AChE. Further, the “IC50 (ITC)” value in [2] (listed as Protocatechic acid) is on record as 6.50 μmol/μmol AChE.

For `CCN(C)C(=O)Oc1cccc([C@H](C)N(C)C)c1` [rivastigmine], the IC50 in experiment [4] was […].

With `O=C(O)c1ccccc1O` [salicylic acid], in [1], the affinity, expressed as Kd, was 19.4 µM and the “Ka × 10^3 (binding/association constant, ITC)” value is 51.55 × 10^3 L/mol. Further, in experiment [2], the “% Inhibition (inhibitory activity, ITC)” value came out at 82.30 ± 4.77% and the “IC50 (ITC)” value turned out to be 6.07 ± 0.35 μmol/μmol AChE. In [2] (listed as Salicylic acid), the “IC50 (ITC)” value is listed as 6.07 μmol/μmol AChE. Further, the “Ellman’s Assay (inhibitory activity as eserine equivalent)” value in [3] is listed as 11.8 ± 0.4 nmol/L of Eserine.

Take `COc1cc(C(=O)O)cc(OC)c1O` [syringic acid]: in [1], the Kd is 5.46 µM; the “Ka × 10^3 (binding/association constant, ITC)” value is listed as 183.15 × 10^3 L/mol; the “Ka (association constant, ITC)” value is 180000 L/mol. Further, in experiment [2], the “% Inhibition (inhibitory activity, ITC)” value stood at 71.80 ± 3.12% and the “IC50 (ITC)” value amounted to 6.96 ± 0.30 μmol/μmol AChE. Further, in experiment [2] (listed as Syringic acid), the “IC50 (ITC)” value was 6.96 μmol/μmol AChE. Further, the IC50 in experiment [7] is 18.73 µg/mL (≈ 94.5 µM). Moreover, the “Ellman’s Assay (inhibitory activity as eserine equivalent)” value in experiment [3] was 5.4 ± 0.1 nmol/L of Eserine.

On to `COc1cc(C(=O)O)ccc1O` [vanillic acid], for which, in experiment [1], binding was characterised by a dissociation constant (Kd) of 19.1 µM and the “Ka × 10^3 (binding/association constant, ITC)” value is listed as 52.36 × 10^3 L/mol. Also, in experiment [8], the “AChE activity in mice” value is listed as “reduced”. Besides, in experiment [2], the “% Inhibition (inhibitory activity, ITC)” value turned out to be 73.70 ± 1.90%; the “IC50 (ITC)” value was 6.79 μmol/μmol AChE and 6.79 ± 0.18 μmol/μmol AChE. Besides, the “Ellman’s Assay (inhibitory activity as eserine equivalent)” value in experiment [3] is 3.2 ± 0.0 nmol/L of Eserine.

As to `COc1cc(C=O)ccc1O` [vanillin], the IC50 in [9] was 37 µM.
